The text below walks through data of patent publication US20140235616A1, “PYRAZOLOQUINOLINONE DERIVATIVES, PREPARATION THEREOF AND THERAPEUTIC USE THEREOF” (SANOFI, priority 2011, published 2014).

T1 sequence (P50579 whole entry): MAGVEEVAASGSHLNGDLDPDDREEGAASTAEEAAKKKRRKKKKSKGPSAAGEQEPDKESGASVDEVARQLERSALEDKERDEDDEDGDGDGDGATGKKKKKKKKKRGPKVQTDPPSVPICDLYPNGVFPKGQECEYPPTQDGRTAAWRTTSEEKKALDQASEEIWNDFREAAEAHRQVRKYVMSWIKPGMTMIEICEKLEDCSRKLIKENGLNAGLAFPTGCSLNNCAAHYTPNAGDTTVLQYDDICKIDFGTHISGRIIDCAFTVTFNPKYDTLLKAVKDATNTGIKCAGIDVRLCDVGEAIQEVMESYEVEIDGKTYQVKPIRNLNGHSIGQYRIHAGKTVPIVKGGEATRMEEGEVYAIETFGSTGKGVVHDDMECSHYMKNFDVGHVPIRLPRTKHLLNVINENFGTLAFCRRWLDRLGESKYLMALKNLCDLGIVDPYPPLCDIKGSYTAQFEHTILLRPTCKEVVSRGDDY

The experiment addresses T1, human MetAP2 (Homo sapiens, UniProt P50579).
T1 construct: made in house; host or cells: Sf9 insect cells (baculovirus)
The experiment can be described thus: MetAP2 enzymatic screening test (isolated enzyme, Met-Pro-Arg-pNa substrate, absorbance at 405 nm). The class given is biochemical. To be noted: read-out: % inhibition hMETAP2 at 100 nM. As to the method:
The compounds according to the invention underwent biochemical studies in order to determine their capacity to inhibit the enzyme methionine-aminopeptidase2 (enzymatic test on isolated enzyme).
MetAP2 Enzymatic Screening Test
For the enzymatic test, human MetAP2 protein was obtained from a culture supernatant of insect cells (sf9) infected with MetAP2 recombinant baculovirus.
Before performing the experiment, dialysis of the MetAP2 supernatant is performed over 24 hours at 4° C. in a buffer (10 mM Hepes, 100 mM KCl, 10% glycerol, pH 7.4) in the presence of EDTA (1 mM) over the first 12 hours.
The dialysis supernatant is recovered and manganese, used as cofactor, is added to a final concentration of 300 μM.
The enzymatic test is a test in two steps.
Consequently, the second step consists in reacting the peptides cleaved in the preceding step with a second peptidase in order to release the chromophore.
For the compound `CCN(CC)S(=O)(=O)c1ccccc1-c1ccc2c3[nH]ncc3c(=O)n(CC(F)(F)F)c2c1` [Compound 136, N,N-diethyl-2-[4-oxo-5-(2,2,2-trifluoroethyl)-4,5-dihydro-1H-pyrazolo[4,3-c]quinolin-7-yl]benzenesulfonamide], the inhibition at 0.1 µM was 45%.

With `CCn1c(=O)c2cn[nH]c2c2ccc(-c3ccc(C(=O)N4CCNCC4)cc3)cc21` [Compound 18, 5-ethyl-7-[4-(piperazine-1-carbonyl)phenyl]-1,5-dihydro-4H-pyrazolo[4,3-c]quinolin-4-one], the inhibition at 0.1 µM amounted to 72%.

Consider `CCn1c(=O)c2cn[nH]c2c2ccc(-c3ccc(F)c(C(N)=O)c3)cc21` [Compound 36, 5-(5-ethyl-4-oxo-4,5-dihydro-1H-pyrazolo[4,3-c]quinolin-7-yl)-2-fluoro-benzamide], for which the inhibition at 0.1 µM was found to be 61%.

`CCNC(=O)c1cccc(-c2ccc3c4[nH]ncc4c(=O)n(CC)c3c2)c1` [Compound 35, N-ethyl-3-(5-ethyl-4-oxo-4,5-dihydro-1H-pyrazolo[4,3-c]quinolin-7-yl)benzamide]: the inhibition at 0.1 µM was 62%.

Regarding `O=c1c2cn[nH]c2c2ccc(-c3cccc(Cl)c3O)cc2n1CC(F)(F)F` [Compound 53, 7-(3-chloro-2-hydroxyphenyl)-5-(2,2,2-trifluoroethyl)-1,5-dihydro-4H-pyrazolo[4,3-c]quinolin-4-one], the inhibition at 0.1 µM amounted to 43%.

In the case of `COc1ncc(-c2ccc3c4[nH]ncc4c(=O)n(CC(F)(F)F)c3c2)c(N(C)C)n1` [Compound 149, 7-(4-dimethylamino-2-methoxypyrimidin-5-yl)-5-(2,2,2-trifluoroethyl)-1,5-dihydro-4H-pyrazolo[4,3-c]quinolin-4-one], the inhibition at 0.1 µM came out at 42%.

Regarding `O=c1c2cn[nH]c2c2ccc(-c3ccnc(Cl)c3F)cc2n1CC(F)(F)F` [Compound 41, 7-(2-chloro-3-fluoropyrid-4-yl)-5-(2,2,2-trifluoroethyl)-1,5-dihydro-4H-pyrazolo[4,3-c]quinolin-4-one], the inhibition at 0.1 µM is 40%.

Take `COc1cc(-c2ccc3c4[nH]ncc4c(=O)n(CC(F)(F)F)c3c2)ccn1` [Compound 158, 7-(2-methoxypyrid-4-yl)-5-(2,2,2-trifluoroethyl)-1,5-dihydro-4H-pyrazolo[4,3-c]quinolin-4-one]: the inhibition at 0.1 µM stood at 40%.

For the compound `Cc1cnc(F)c(-c2ccc3c4[nH]ncc4c(=O)n(CC(F)(F)F)c3c2)c1` [Compound 135, 7-(2-fluoro-5-methylpyrid-3-yl)-5-(2,2,2-trifluoroethyl)-1,5-dihydro-4H-pyrazolo[4,3-c]quinolin-4-one], the inhibition at 0.1 µM was 45%.

With `CCn1c(=O)c2cn[nH]c2c2ccc(-c3ccc(C(=O)N4CCOCC4)c(Cl)c3)cc21` [Compound 29, 7-[3-chloro-4-(morpholine-4-carbonyl)phenyl]-5-ethyl-1,5-dihydro-4H-pyrazolo[4,3-c]quinolin-4-one], the inhibition at 0.1 µM is 67%.

`CCn1c(=O)c2cn[nH]c2c2ccc(-c3cnc(N4CCNCC4)nc3)cc21` [Compound 20, 5-ethyl-7-(2-piperazin-1-ylpyrimidin-5-yl)-1,5-dihydro-4H-pyrazolo[4,3-c]quinolin-4-one]: the inhibition at 0.1 µM turned out to be 70%.

With `Cc1cc(N)ncc1-c1ccc2c3[nH]ncc3c(=O)n(CC(F)(F)F)c2c1` [Compound 137, 7-(6-amino-4-methylpyrid-3-yl)-5-(2,2,2-trifluoroethyl)-1,5-dihydro-4H-pyrazolo[4,3-c]quinolin-4-one], the inhibition at 0.1 µM stood at 45%.

For `COc1ccc(-c2ccc3c4[nH]ncc4c(=O)n(CC(F)(F)F)c3c2)c(C)n1` [Compound 138, 7-(6-methoxy-2-methylpyrid-3-yl)-5-(2,2,2-trifluoroethyl)-1,5-dihydro-4H-pyrazolo[4,3-c]quinolin-4-one], the inhibition at 0.1 µM came out at 44%.

In the case of `Cc1nc(N)ccc1-c1ccc2c3[nH]ncc3c(=O)n(CC(F)(F)F)c2c1` [Compound 142, 7-(6-amino-2-methylpyrid-3-yl)-5-(2,2,2-trifluoroethyl)-1,5-dihydro-4H-pyrazolo[4,3-c]quinolin-4-one], the inhibition at 0.1 µM was 44%.

For the compound `O=c1c2cn[nH]c2c2ccc(-c3cccc(F)n3)cc2n1CC(F)(F)F` [Compound 163, 7-(6-fluoropyrid-2-yl)-5-(2,2,2-trifluoroethyl)-1,5-dihydro-4H-pyrazolo[4,3-c]quinolin-4-one], the inhibition at 0.1 µM was determined as 38%.

Regarding `COC(=O)c1cccc(-c2ccc3c4[nH]ncc4c(=O)n(CC(F)(F)F)c3c2)n1` [Compound 164, methyl 6-[4-oxo-5-(2,2,2-trifluoroethyl)-4,5-dihydro-1H-pyrazolo[4,3-c]quinolin-7-yl]pyridine-2-carboxylate], the inhibition at 0.1 µM stood at 37%.

In the case of `CCn1c(=O)c2cn[nH]c2c2ccc(-c3cccc(C(=O)NCCOC)c3)cc21` [Compound 39, 3-(5-ethyl-4-oxo-4,5-dihydro-1H-pyrazolo[4,3-c]quinolin-7-yl)-N-(2-methoxyethyl)benzamide], the inhibition at 0.1 µM was 60%.

Regarding `CC(=O)NCc1ccccc1-c1ccc2c3[nH]ncc3c(=O)n(CC(F)(F)F)c2c1` [Compound 151, N-{2-[4-oxo-5-(2,2,2-trifluoroethyl)-4,5-dihydro-1H-pyrazolo[4,3-c]quinolin-7-yl]benzyl}acetamide], the inhibition at 0.1 µM came to 41%.

Take `CC(=O)Nc1ncc(C)cc1-c1ccc2c3[nH]ncc3c(=O)n(CC(F)(F)F)c2c1` [Compound 130, N-{5-methyl-3-[4-oxo-5-(2,2,2-trifluoroethyl)-4,5-dihydro-1H-pyrazolo[4,3-c]quinolin-7-yl]pyrid-2-yl}acetamide]: the inhibition at 0.1 µM is 48%.

Regarding `CCn1c(=O)c2cn[nH]c2c2ccc(-c3ccc4[nH]ncc4c3)cc21` [Compound 34, 5-ethyl-7-(1H-indazol-5-yl)-1,5-dihydro-4H-pyrazolo[4,3-c]quinolin-4-one], the inhibition at 0.1 µM was 62%.

As to `COC(=O)Cc1ccccc1-c1ccc2c3[nH]ncc3c(=O)n(CC(F)(F)F)c2c1` [Compound 144, methyl {2-[4-oxo-5-(2,2,2-trifluoroethyl)-4,5-dihydro-1H-pyrazolo[4,3-c]quinolin-7-yl]phenyl}acetate], the inhibition at 0.1 µM stood at 43%.

Turning to `CN(C)CCOc1cccc(-c2ccc3c4[nH]ncc4c(=O)n(CC(F)(F)F)c3c2)c1` [Compound 155, 7-[3-(2-dimethylaminoethoxy)phenyl]-5-(2,2,2-trifluoroethyl)-1,5-dihydro-4H-pyrazolo[4,3-c]quinolin-4-one], the inhibition at 0.1 µM is 41%.

As to `O=c1c2cn[nH]c2c2ccc(-c3cc(Cl)cnc3F)cc2n1CC(F)(F)F` [Compound 129, 7-(5-chloro-2-fluoropyrid-3-yl)-5-(2,2,2-trifluoroethyl)-1,5-dihydro-4H-pyrazolo[4,3-c]quinolin-4-one], the inhibition at 0.1 µM was determined as 36%.

For the compound `Cc1cc(-n2cnnc2)ncc1-c1ccc2c3[nH]ncc3c(=O)n(CC(F)(F)F)c2c1` [Compound 140, 7-(4-methyl-6-[1,2,4]triazol-4-ylpyrid-3-yl)-5-(2,2,2-trifluoroethyl)-1,5-dihydro-4H-pyrazolo[4,3-c]quinolin-4-one], the inhibition at 0.1 µM was found to be 44%.

As for `O=c1c2cn[nH]c2c2ccc(-c3cccc(O)c3)cc2n1CC(F)(F)F` [Compound 40, 7-(3-hydroxyphenyl)-5-(2,2,2-trifluoroethyl)-1,5-dihydro-4H-pyrazolo[4,3-c]quinolin-4-one], the inhibition at 0.1 µM came out at 40%.
